# Structures can show the parent of a compound that is named as a salt. Where two headings read alike, the source gives them in different places. Marks after values point to notes of the source that are not given here.
# What was measured:
# [1] = tested on: Candida albicans A9540; assay: Intravenous Candida albicans infection mouse model, Table 2 part B; type: in vivo, mice
# Experimental: Several compounds were also evaluated in an intravenous Candida albicans […] infection mouse model. The test organism was suspended in saline approximately 10 times the median lethal dose of the fungus (10⁶ cells/mouse) were used to infect intravenously male ICR mice weighing 20 to 24 g. Groups of five mice at each dose level were given the test compounds intravenously or intramuscularly. The 50% protective dose (PD₅₀) was calculated from survival rates recorded 20 or 21 days after the fungal challenge. […]
# [2] = tested on: Candida albicans A25578; assay: In vitro antifungal activity, serial agar dilution method (Table 1a); type: cell-based
# Experimental: (§1) The inoculum size was adjusted to 10⁶ cells/ml, and a volume of approximately 0.003 ml of fungal suspension was applied to the surface of the antibiotic containing agar plates with a multiinoculator. After incubation, the lowest concentration of antibiotic causing virtually complete inhibition of fungal growth was determined as the minimum inhibitory concentration (MIC).
# [3] = tested on: Trichophyton rubrum A26761; assay: as above; type: cell-based; conditions: A26761, pH 7, read-out: MICs, Trichophyton rubrum A26761
# Experimental: as §1
# [4] = tested on: Cryptococcus neoformans A15053; assay: as above; type: cell-based
# Experimental: as §1
# [5] = tested on: Microsporum gypseum WW1107; assay: as above; type: cell-based; conditions: Nannizzia gypsea, YM agar (pH 7.0, Difco), 30°C for 2 days (yeast) or 4 days (filamentous fungi), read-out: MICs, Microsporum gypseum WW1107
# Experimental: as §1
# [6] = tested on: Candida paratropicalis A25825; assay: as above; type: cell-based
# Experimental: as §1
# [7] = tested on: Candida pseudotropicalis A25802; assay: as above; type: cell-based; conditions: Kluyveromyces marxianus, YM agar (pH 7.0, Difco), 30°C for 2 days (yeast) or 4 days (filamentous fungi), read-out: MICs, Candida pseudotropicalis A25802
# Experimental: as §1
# [8] = tested on: Candida albicans A9540; assay: as above; type: cell-based
# Experimental: as §1
# [9] = tested on: Candida tropicalis A25812; assay: as above; type: cell-based
# Experimental: as §1
# [10] = tested on: Saccharomyces cerevisiae A25803; assay: as above; type: cell-based; conditions: YM agar (pH 7.0, Difco), 30°C for 2 days (yeast) or 4 days (filamentous fungi), read-out: MICs, Saccharomyces cerevisiae A25803
# Experimental: as §1
# [11] = tested on: Trichophyton mentagrophytes A26771; assay: as above; type: cell-based
# Experimental: as §1
# [12] = tested on: Candida tropicalis A25809; assay: as above; type: cell-based; conditions: YM agar (pH 7.0, Difco), 30°C for 2 days (yeast) or 4 days (filamentous fungi), read-out: MICs, Candida tropicalis A25809
# Experimental: as §1
# [13] = tested on: Microsporum canis WW10218; assay: as above; type: cell-based; conditions: WW10218, pH 7, read-out: MICs, Microsporum canis WW10218
# Experimental: as §1
# [14] = Water solubility, protocol I (PBS, HPLC); type: physicochemical; conditions: Method I: PBS without CaCl₂ and MgCl₂.6H₂O
# Experimental: The supernatant (2 µL) was analyzed by HPLC using the conditions specified for each compound in the Experimental Section. […] When not soluble, an additional amount of PBS (x µL) was added, sonicated, and centrifuged. When visibly soluble, the solution (2 µL) was injected to HPLC and the peak area was used for the known concentration of the sample.
# [15] = tested on: M. gypseum A26835; assay: In vitro antifungal activity, serial agar dilution method (Table 1a, footnote strain 4); type: cell-based, Microsporum gypseum; conditions: Nannizzia gypsea
# Experimental: as §1
# [16] = tested on: M. canis A26834; assay: In vitro antifungal activity, serial agar dilution method (Table 1a, footnote strain 5); type: cell-based; conditions: Microsporum canis, A26834, pH 7, read-out: MICs, M. canis A26834
# Experimental: as §1
# [17] = tested on: T. mentagrophytes A22838; assay: In vitro antifungal activity, serial agar dilution method (Table 1a, footnote strain 3); type: cell-based; conditions: Trichophyton mentagrophytes, strain per footnote **3, YM agar (pH 7.0, Difco), 30°C for 2 days (yeast) or 4 days (filamentous fungi), read-out: MICs, T. mentagrophytes A22838
# Experimental: as §1
# [18] = tested on: T. rubrum A24195; assay: In vitro antifungal activity, serial agar dilution method (Table 1a, footnote strain 2); type: cell-based; conditions: Trichophyton rubrum, A24195, pH 7, read-out: MICs, T. rubrum A24195
# Experimental: as §1
# [19] = tested on: M. gypseum A22810; assay: In vitro antifungal activity, serial agar dilution method (Table 1a, footnote strain 1); type: cell-based, Microsporum gypseum; conditions: Nannizzia gypsea, strain per footnote **1, YM agar (pH 7.0, Difco), 30°C for 2 days (yeast) or 4 days (filamentous fungi), read-out: MICs, M. gypseum A22810
# Experimental: as §1
# [20] = tested on: M. canis A22494; assay: In vitro antifungal activity, serial agar dilution method (Table 1a, footnote strain 6); type: cell-based; conditions: Microsporum canis, A22494, pH 7, read-out: MICs, M. canis A22494
# Experimental: as §1
# [21] = A25578, YM agar (pH 7.0, Difco), 30°C for 2 days (yeast) or 4 days (filamentous fungi), read-out: MICs, Candida albicans A25578
# [22] = A15053, YM agar (pH 7.0, Difco), 30°C for 2 days (yeast) or 4 days (filamentous fungi), read-out: MICs, Cryptococcus neoformans A15053
# [23] = YM agar (pH 7.0, Difco), 30°C for 2 days (yeast) or 4 days (filamentous fungi), read-out: MICs, Candida paratropicalis A25825
# [24] = A9540, YM agar (pH 7.0, Difco), 30°C for 2 days (yeast) or 4 days (filamentous fungi), read-out: MICs, Candida albicans A9540
# [25] = A25812, YM agar (pH 7.0, Difco), 30°C for 2 days (yeast) or 4 days (filamentous fungi), read-out: MICs, Candida tropicalis A25812
# [26] = A26771, YM agar (pH 7.0, Difco), 30°C for 2 days (yeast) or 4 days (filamentous fungi), read-out: MICs, Trichophyton mentagrophytes A26771
Compound,"MIC [2, 21] [µg/mL]",MIC [3] [µg/mL],"MIC [4, 22] [µg/mL]",MIC [5] [µg/mL],"MIC [6, 23] [µg/mL]",MIC [7] [µg/mL],"MIC [8, 24] [µg/mL]","MIC [9, 25] [µg/mL]",MIC [10] [µg/mL],"MIC [11, 26] [µg/mL]",MIC [12] [µg/mL],MIC [13] [µg/mL],solubility [14] [µg/mL],MIC [16] [µg/mL],also measured
"COc1cc(O)c2c(c1)C(=O)c1c(cc3c(c1O)-c1c(cc(C)c(C(=O)N[C@H](C)C(=O)O)c1O)[C@H](O[C@@H]1O[C@H](C)[C@H](N(C)CC(=O)O)[C@H](O)[C@H]1O)[C@H]3O)C2=O [Ex. 4, N-carboxymethyl pradimicin B]",1.6,12.5,1.6,25,3.2,1.6,3.2,3.2,0.8,12.5,1.6,6.3,> 10000,–,"PD₅₀ ([1]; mouse, in vivo): >50** mg/kg"
"COc1cc(O)c2c(c1)C(=O)c1c(cc3c(c1O)-c1c(cc(C)c(C(=O)N[C@H](C)C(=O)O)c1O)[C@H](O[C@@H]1O[C@H](C)[C@H](N(C)Cc4ccccc4)[C@H](O[C@@H]4OC[C@@H](O)[C@H](O)[C@H]4O)[C@H]1O)[C@H]3O)C2=O [Ex. 24, N-(Benzyl) pradimicin A]",> 50,3.2,1.6,–,> 50,12.5,> 50,> 50,–,3.2,–,–,–,25,"MIC ([15]; A26835, strain per footnote **4, YM agar (pH 7.0, Difco), 30°C for 2 days (yeast) or 4 days (filamentous fungi), read-out: MICs, M. gypseum A26835): 50 µg/mL"
"COc1cc(O)c2c(c1)C(=O)c1c(cc3c(c1O)-c1c(cc(C)c(C(=O)N[C@H](C)C(=O)O)c1O)[C@H](O[C@@H]1O[C@H](C)[C@H](N(C)CC(N)=O)[C@H](O)[C@H]1O)[C@H]3O)C2=O [Ex. 5, N-(carbamoylmethyl) pradimicin B]",0.8,1.6,0.8,3.2,3.2,0.8,3.2,3.2,0.8,1.6,0.8,1.6,> 4000,–,"PD₅₀ ([1]; Part B: route IV, at 1 and 3.5 hrs after infection and twice on the following day, 21 days after fungal challenge, method of Spearman-Karber, male ICR mice): >50** mg/kg"
"CNC(=O)N(C)[C@@H]1[C@H](O)[C@@H](O)[C@H](O[C@H]2c3cc(C)c(C(=O)N[C@H](C)C(=O)O)c(O)c3-c3c(cc4c(c3O)C(=O)c3cc(OC)cc(O)c3C4=O)[C@@H]2O)O[C@@H]1C [Ex. 18, N-(N-methylcarbamoyl) pradimicin B]",–,> 50,–,–,–,3.2,–,–,–,–,–,–,4000,> 50,"MIC ([2]; A25578, pH 7, read-out: MICs, Candida albicans A25578): 25 µg/mL; MIC ([4]; A15053, pH 7, read-out: MICs, Cryptococcus neoformans A15053): > 50 µg/mL; MIC ([6]; pH 7, read-out: MICs, Candida paratropicalis A25825): 25 µg/mL; MIC ([8]; A9540, pH 7, read-out: MICs, Candida albicans A9540): 25 µg/mL; MIC ([9]; A25812, pH 7, read-out: MICs, Candida tropicalis A25812): 25 µg/mL; MIC ([11]; A26771, pH 7, read-out: MICs, Trichophyton mentagrophytes A26771): > 50 µg/mL; MIC ([15]; A26835, pH 7, read-out: MICs, M. gypseum A26835): > 50 µg/mL"
"COc1cc(O)c2c(c1)C(=O)c1c(cc3c(c1O)-c1c(cc(C)c(C(=O)N[C@H](C)C(=O)O)c1O)[C@H](O[C@@H]1O[C@H](C)[C@H](N(C)C(=O)[C@@H](N)CCC(=O)O)[C@H](O)[C@H]1O)[C@H]3O)C2=O [Ex. 20, N-(L-glutamyl) pradimicin B formate salt]",12.5,–,50,–,25,6.3,25,25,6.3,–,–,–,–,–,MIC [17]: 12.5 µg/mL; MIC [18]: 12.5 µg/mL; MIC [19]: 12.5 µg/mL; MIC [20]: 12.5 µg/mL
